Calls of active or inactive are those of the source. No cut-off for these calls is given here.
Assays:
HOP-62 [1] = assay: Cytotoxicity against human HOP62 cells assessed as growth inhibition at 10 uM after 24 hrs by SRB assay; assay type: functional; conditions: HOP-62, 24 h, read-out: GI
PC-3 = assay: Cytotoxicity against human PC3 cells assessed as growth inhibition at 10 uM after 24 hrs by SRB assay; assay type: functional; conditions: PC-3, 24 h, read-out: GI
DU-145 = assay: Cytotoxicity against human DU145 cells after 48 hrs by SRB assay; assay type: functional; conditions: DU-145, 48 h
U-251 [2] = assay: Cytotoxicity against human U251 cells after 48 hrs by SRB assay; assay type: functional; conditions: U-251, 48 h
TK-10 [3] = assay: Cytotoxicity against human TK10 cells assessed as growth inhibition at 10 uM after 24 hrs by SRB assay; assay type: functional; conditions: TK-10, 24 h, read-out: GI
CCRF-CEM = assay: Cytotoxicity against human CCRF-CEM cells assessed as growth inhibition at 10 uM after 24 hrs by SRB assay; assay type: functional
A549 = assay: Cytotoxicity against human A549 cells assessed as growth inhibition at 10 uM after 24 hrs by SRB assay; assay type: functional; conditions: A549, 24 h, read-out: GI
OVCAR-8 = assay: Cytotoxicity against human OVCAR8 cells assessed as growth inhibition at 10 uM after 24 hrs by SRB assay; assay type: functional; conditions: OVCAR-8, 24 h, read-out: GI
SK-MEL-28 [4] = assay: Cytotoxicity against human SK-MEL-28 cells assessed as growth inhibition at 10 uM after 24 hrs by SRB assay; assay type: functional; conditions: SK-MEL-28, 24 h, read-out: GI
SK-OV-3 = assay: Cytotoxicity against human SKOV3 cells assessed as growth inhibition at 10 uM after 24 hrs by SRB assay; assay type: functional; conditions: SK-OV-3, 24 h, read-out: GI
SF-295 = assay: Cytotoxicity against human SF295 cells assessed as growth inhibition at 10 uM after 24 hrs by SRB assay; assay type: functional; conditions: SF-295, 24 h, read-out: GI
CAKI-1 = assay: Cytotoxicity against human CAKI-1 cells assessed as growth inhibition at 10 uM after 24 hrs by SRB assay; assay type: functional; conditions: CAKI-1, 24 h, read-out: GI
NCI-H226 = assay: Cytotoxicity against human NCI-H226 cells assessed as growth inhibition at 10 uM after 24 hrs by SRB assay; assay type: functional; conditions: NCI-H226, 24 h, read-out: GI
UACC-257 = assay: Cytotoxicity against human UACC257 cells assessed as growth inhibition at 10 uM after 24 hrs by SRB assay; assay type: functional; conditions: UACC-257, 24 h, read-out: GI
HL-60(TB) = assay: Cytotoxicity against human HL-60(TB) cells assessed as growth inhibition at 10 uM after 24 hrs by SRB assay; assay type: functional; conditions: HL-60, 24 h, read-out: GI
HCT-116 = assay: Cytotoxicity against human HCT116 cells assessed as growth inhibition at 10 uM after 24 hrs by SRB assay; assay type: functional; conditions: HCT-116, 24 h, read-out: GI
SNB-75 [5] = assay: Cytotoxicity against human SNB75 cells assessed as growth inhibition at 10 uM after 24 hrs by SRB assay; assay type: functional; conditions: SNB-75, 24 h, read-out: GI
RXF 393 [6] = assay: Cytotoxicity against human RXF393 cells assessed as growth inhibition at 10 uM after 24 hrs by SRB assay; assay type: functional; conditions: RXF 393, 24 h, read-out: GI
HOP-62 [7] = assay: Cytotoxicity against human HOP62 cells after 48 hrs by SRB assay; assay type: functional; conditions: HOP-62, 48 h
NCI-H460 = assay: Cytotoxicity against human NCI-H460 cells assessed as growth inhibition at 10 uM after 24 hrs by SRB assay; assay type: functional; conditions: NCI-H460, 24 h, read-out: GI
U-251 [8] = assay: Cytotoxicity against human U251 cells assessed as growth inhibition at 10 uM after 24 hrs by SRB assay; assay type: functional; conditions: U-251, 24 h, read-out: GI
TK-10 [9] = assay: Cytotoxicity against human TK10 cells after 48 hrs by SRB assay; assay type: functional; conditions: TK-10, 48 h
HOP-92 [10] = assay: Cytotoxicity against human HOP92 cells assessed as growth inhibition at 10 uM after 24 hrs by SRB assay; assay type: functional; conditions: HOP-92, 24 h, read-out: GI
ACHN = assay: Cytotoxicity against human ACHN cells assessed as growth inhibition at 10 uM after 24 hrs by SRB assay; assay type: functional; conditions: read-out: GI
NCI-H522 = assay: Cytotoxicity against human NCI-H522 cells assessed as growth inhibition at 10 uM after 24 hrs by SRB assay; assay type: functional; conditions: NCI-H522, 24 h, read-out: GI
786-0 [11] = assay: Cytotoxicity against human 786-0 cells after 48 hrs by SRB assay; assay type: functional; conditions: 786-0, 48 h
SR = assay: Cytotoxicity against human SR cells assessed as growth inhibition at 10 uM after 24 hrs by SRB assay; assay type: functional; conditions: read-out: GI
T47D = assay: Cytotoxicity against human T47D cells assessed as growth inhibition at 10 uM after 24 hrs by SRB assay; assay type: functional; conditions: read-out: GI
MDA-MB-435 = assay: Cytotoxicity against human MDA-MB-435 cells assessed as growth inhibition at 10 uM after 24 hrs by SRB assay; assay type: functional; conditions: MDA-MB-435, 24 h, read-out: GI
SF-539 = assay: Cytotoxicity against human SF539 cells assessed as growth inhibition at 10 uM after 24 hrs by SRB assay; assay type: functional; conditions: SF-539, 24 h, read-out: GI
NCI/ADR-RES = assay: Cytotoxicity against human NCI/ADR-RES cells assessed as growth inhibition at 10 uM after 24 hrs by SRB assay; assay type: functional; conditions: read-out: GI
MDA-MB-231 [12] = assay: Cytotoxicity against human MDA-MB-231 cells after 48 hrs by SRB assay; assay type: functional; conditions: MDA-MB-231, 48 h
Ovis aries = organism: Ovis aries; assay: Inhibition of sheep tubulin polymerization at 100 uM by fluorescence assay
HOP-92 [13] = assay: Cytotoxicity against human HOP92 cells after 48 hrs by SRB assay; assay type: functional; conditions: HOP-92, 48 h
Malme-3M = assay: Cytotoxicity against human MALME-3M cells assessed as growth inhibition at 10 uM after 24 hrs by SRB assay; assay type: functional; conditions: read-out: GI
[14] = Cytotoxicity against human Hs578T cells assessed as growth inhibition at 10 uM after 24 hrs by SRB assay; assay type: functional; conditions: Hs-578T, read-out: GI
K562 = assay: Cytotoxicity against human K562 cells assessed as growth inhibition at 10 uM after 24 hrs by SRB assay; assay type: functional; conditions: K562, 24 h, read-out: GI
SK-MEL-28 [15] = assay: Cytotoxicity against human SK-MEL-28 cells after 48 hrs by SRB assay; assay type: functional; conditions: SK-MEL-28, 48 h
SNB-75 [16] = assay: Cytotoxicity against human SNB75 cells after 48 hrs by SRB assay; assay type: functional; conditions: SNB-75, 48 h
OVCAR-3 = assay: Cytotoxicity against human OVCAR3 cells assessed as growth inhibition at 10 uM after 24 hrs by SRB assay; assay type: functional; conditions: OVCAR-3, 24 h, read-out: GI
RXF 393 [17] = assay: Cytotoxicity against human RXF393 cells after 48 hrs by SRB assay; assay type: functional; conditions: RXF 393, 48 h
786-0 [18] = assay: Cytotoxicity against human 786-0 cells assessed as growth inhibition at 10 uM after 24 hrs by SRB assay; assay type: functional; conditions: 786-0, 24 h, read-out: GI
SK-MEL-5 = assay: Cytotoxicity against human SK-MEL-5 cells assessed as growth inhibition at 10 uM after 24 hrs by SRB assay; assay type: functional; conditions: SK-MEL-5, 24 h, read-out: GI
MDA-MB-231 [19] = assay: Cytotoxicity against human MDA-MB-231 cells assessed as growth inhibition at 10 uM after 24 hrs by SRB assay; assay type: functional; conditions: MDA-MB-231, 24 h, read-out: GI
RPMI-8226 = assay: Cytotoxicity against human RPMI8226 cells assessed as growth inhibition at 10 uM after 24 hrs by SRB assay; assay type: functional; conditions: RPMI-8226, 24 h, read-out: GI
OVCAR-4 = assay: Cytotoxicity against human OVCAR4 cells assessed as growth inhibition at 10 uM after 24 hrs by SRB assay; assay type: functional; conditions: OVCAR-4, 24 h, read-out: GI
UACC-62 = assay: Cytotoxicity against human UACC62 cells assessed as growth inhibition at 10 uM after 24 hrs by SRB assay; assay type: functional; conditions: UACC-62, 24 h, read-out: GI
MCF7 = assay: Cytotoxicity against human MCF7 cells assessed as growth inhibition at 10 uM after 24 hrs by SRB assay; assay type: functional; conditions: MCF7, 24 h, read-out: GI

Compound: COc1nc(OC)nc(-c2cc(C(=O)c3ccc(Br)cc3)n3ccccc23)n1
- inhibition of growth at 10 µM (HOP-62 [1]): 96%
- inhibition of growth at 10 µM (PC-3): 55%
- GI50 (DU-145): 29100 nM
- GI50 (U-251 [2]): 1870 nM
- inhibition of growth at 10 µM (TK-10 [3]): 78%
- growth inhibition (GI) (CCRF-CEM): inactive
- inhibition of growth at 10 µM (A549): 62%
- inhibition of growth at 10 µM (OVCAR-8): 52%
- inhibition of growth at 10 µM (SK-MEL-28 [4]): 63%
- inhibition of growth at 10 µM (SK-OV-3): -11%
- inhibition of growth at 10 µM (SF-295): 87%
- inhibition of growth at 10 µM (CAKI-1): 56%
- inhibition of growth at 10 µM (NCI-H226): 75%
- inhibition of growth at 10 µM (UACC-257): 62%
- inhibition of growth at 10 µM (HL-60(TB)): 12%
- inhibition of growth at 10 µM (HCT-116): 65%
- inhibition of growth at 10 µM (SNB-75 [5]): -5%
- inhibition of growth at 10 µM (RXF 393 [6]): 75%
- GI50 (HOP-62 [7]): 2180 nM
- inhibition of growth at 10 µM (NCI-H460): 70%
- inhibition of growth at 10 µM (U-251 [8]): 61%
- GI50 (TK-10 [9]): 3320 nM
- inhibition of growth at 10 µM (HOP-92 [10]): 59%
- inhibition of growth at 10 µM (ACHN): 70%
- inhibition of growth at 10 µM (NCI-H522): 40%
- GI50 (786-0 [11]): 2600 nM
- inhibition of growth at 10 µM (SR): 36%
- inhibition of growth at 10 µM (T47D): 52%
- inhibition of growth at 10 µM (MDA-MB-435): 45%
- inhibition of growth at 10 µM (SF-539): 76%
- inhibition of growth at 10 µM (NCI/ADR-RES): 50%
- GI50 (MDA-MB-231 [12]): 920 nM
- inhibition (Ovis aries): inactive
- GI50 (HOP-92 [13]): 1080 nM
- inhibition of growth at 10 µM (Malme-3M): 37%
- inhibition of growth at 10 µM [14]: 96%
- inhibition of growth at 10 µM (K562): 22%
- GI50 (SK-MEL-28 [15]): 83800 nM
- GI50 (SNB-75 [16]): 870 nM
- inhibition of growth at 10 µM (OVCAR-3): 44%
- GI50 (RXF 393 [17]): 4740 nM
- inhibition of growth at 10 µM (786-0 [18]): 59%
- inhibition of growth at 10 µM (SK-MEL-5): 27%
- inhibition of growth at 10 µM (MDA-MB-231 [19]): 48%
- inhibition of growth at 10 µM (RPMI-8226): 26%
- inhibition of growth at 10 µM (OVCAR-4): 88%
- inhibition of growth at 10 µM (UACC-62): 30%
- inhibition of growth at 10 µM (MCF7): 18%
